Assay results reported in patent publication US20110142866A1, “PEPTIDE ANALOGUES AND CONJUGATES THEREOF” (Eldrug S.A., priority 2007, published 2011).
Entries after “also recorded” stand apart in the source; their conditions may differ.

Legend:
[1] = test system: IL-4 secretion by T cells; test: IL-4 ELISpot of spleen cells from immunized mice; type: in vivo, SJL/J mice; set-up: key to IL-4: −: negative; +/−: very weak; +: weak; ++: moderate; +++: strong; conditions: for IL-4 responses: peptide conjugated to reduced mannan, two injections
Procedure: (§1) Female 6-8 week old SJL/J mice used in all experiments, were purchased from Walter and Eliza Hall Institute (VIC Australia) and housed at the Biological Research Laboratory at Burnet Institute at Austin, Heidelberg, Australia. SJL/J mice were immunized twice on days 0, 14 intradermally (base of tail) with 50 μg MBP83-99 peptide analogue-KLH-reduced mannan.
(§2) ELISpot analyses specific T cell responses to antigens by detecting the secretion of specific cytokines. Spleen cells from immunized SJL/J mice were isolated 14 days after immunization and assessed by ELISpot for IFN-γ, IL-4 or IL-10 secretion by T cells. IFN-γ ELISpot assay was performed on MultiScreen-IP Filter Plate (MAIP S4510) with hydrophobic PVDF filters (Millipore, UK) while IL-4 and IL-10 ELISpot was performed on MultiScreen-HA Filter Plate (MAHA S4510) with mixed cellulose esters filters (Millipore, UK). MAIP S4510 plates were pre-wet with 50 μl of 70% ethanol, washed 5 times with 200 μl sterile PBS and coated with 70 μl of 5 μg/ml anti-IFN-γ capture antibody, AN18 (Mabtech, Australia) in PBS and left to incubate at 4° C. O/N. While 70 μl of 5 μg/ml anti-IL-4 and anti-IL-10 capture antibody (Mabtech, Australia) was added directly to MAHA S4510 plates and incubated at 4° C. O/N without 70% ethanol treatment. Following 5 washes with PBS, plates were blocked by adding 200 μl of culture media (supplemented with 2.5% FCS) and incubated for 2 hours at 37° C. The blocking media was discarded and 10 μg/ml recall peptides (MBP83-99 peptide analogues not conjugated to KLH-reduced mannan) were added into each defined well. Con A (1.0 μg/ml; IL-4 and IFN-γ) or LPS (1.0 μg/ml; IL-10) were used as an internal positive controls and no peptide was used as negative control. Triplicate wells were set up for each condition. 5×10^5 spleen cells in 100 μl culture media were seeded into each well and incubated for 18 hours for IFN-γ, 24 hours for IL-4 and 48 hours for IL-10 at 37° C. Plates were washed 5 times PBS/0.05% Tween 20 and 5 times PBS and incubated for 2 hours at RT with anti-murine IFN-γ, IL-4 or IL-10 monoclonal antibody-biotin. Plates were washed and streptavidin-ALP was added at 1.0 μg/ml and incubated for 2.0 hours at RT. Spots of activity were detected using a colorimetric AP kit (Biorad, Hercules, Calif. USA) and counted using an AID ELISpot plate reader (Autoimmun Diagnostika GmbH, Germany). Data are presented as mean spot forming units (sfu) per 0.5×10^6 cells +/−standard error of the mean (SEM).
(§3) MBP87-99, [R^91, A^96]MBP87-99 or [A^91, A^96]MBP87-99 peptides were dissolved in PBS and emulsified in an equal volume of complete Freund's adjuvant (CFA) which contained 1.0 mg/ml of heat killed Mycobacterium tuberculosis H37RA (Sigma, Victoria, Australia). SJL/J mice were given one subcutaneous injection containing 50 μg peptide into the base of tail.
(§4) SJL/J mice were immunized twice on days 0 and 14 intradermally (base of tail) with 50 μg MBP87-99-KLH-reduced mannan, [R^91, A^96]MBP87-99-KLH-reduced mannan or [A^91, A^96]MBP87-99-KLH-reduced mannan conjugates.
(§5) ELISpot detects specific T cell responses to antigens by measuring the secretion of specific cytokines from individual cells. Spleen cells from immunized SJL/J mice were isolated 28 days after CFA immunization or 14 days after the last immunization with reduced mannan-peptides and assessed by ELISpot for IFN-γ and IL-4 secretion by T cells. IFN-γ ELISpot assay was performed on MultiScreen-IP Filter Plate (MAIP S4510) with hydrophobic PVDF filters (Millipore, UK), while IL-4 ELISpot assays were performed on MultiScreen-HA Filter Plate (MAHA S4510) with mixed cellulose esters filters (Millipore, UK). MAIP S4510 plates were pre-weted with 50 μl of 70% ethanol, washed 5 times with 200 μl of sterile phosphate-buffered saline (PBS) and coated with 70 μl of 5 μg/ml anti-IFN-γ capture antibody, AN18 (Mabtech, Australia) in PBS and incubated O/N at 4° C. […]

[2] = test system: IFN-γ secretion by T cells; test: IFN-γ ELISpot of spleen cells from immunized mice; type: in vivo, SJL/J mice; set-up: key to IFN-γ: −: negative; +/−: very weak; +: weak; ++: moderate; +++: strong
Procedure: as §1, §2, §3, §4, §5

[3] = test system: IFN-γ production induced by the native MBP83-99 peptide; test: In vitro IFN-γ antagonism ELISpot; type: cell-based, SJL/J mice; set-up: key to Antagonism: −: negative; +/−: very weak; +: weak; ++: moderate; +++: strong; conditions: for Antagonism: Table 3, complete Freund's adjuvant
Procedure: Mice were immunized with native MBP83-99 peptide emulsified in CFA, and spleen cells were isolated 25 days later. The ability of cyclic mutant MBP83-99 peptide analogues to antagonize IFN-γ production was assessed by ELISpot analysis. The native MBP83-99 peptide was added together with cyclic mutated MBP83-99 analogues, and % IFN-γ inhibition is shown.
ELISpot assays are an ex vivo 18 h assay that measures IFN-γ secretion by T cells. […] The sensitivity of the assay is higher than limiting dilution analysis, FACscan analysis, or ELISA methods and can reliably detect precursor frequencies of antigen specific effectors of 1 in every 0.5 million cells. It is therefore an appropriate method to detect antigen specific cells. Here, we measured IFN-γ production generated by the native MBP83-99 peptide and assessed the % inhibition (antagonize) of IFN-γ produced in the presence of mutant peptide analogues.
Cyclic head-to-tail MBP83-99 single and double mutant analogues were tested for their ability to inhibit IFN-γ responses induced by the native agonist MBP83-99 peptide. Mice were immunized with the native agonist MBP83-99 peptide emulsified in complete Freund's adjuvant (CFA). Spleen cells were isolated 25 days later, and the ability of cyclic peptides to inhibit (antagonize) IFN-γ production was assessed in in vitro antagonism ELISpot assays (FIG. 8). The results are shown as % IFN-γ inhibition of each cyclic mutant peptide analogue, in comparison to the native MBP83-99 peptide alone. All cyclic peptide analogues inhibited IFN-γ production between 30% and 90%. […] However, the single mutant analogue cyclo(83-99)[A^91]MBP83-99 was the most efficient in inhibiting IFN-γ production induced by the native MBP83-99 peptide, up to 92%. On the basis of the ability of cyclo(83-99)[A^91]MBP83-99 peptide to inhibit (antagonize) IFN-γ production by T cells, we chose to examine its in vivo efficacy in SJL/J mice after emulsification in CFA or conjugation to reduced mannan.

[4] = 50 μg peptide conjugated to reduced mannan, two intradermal injections, spleen cells 14 days post-immunization
[5] = 50 μg peptide emulsified in CFA, one injection, spleen cells 28 days
[6] = Table 2, peptide analogues conjugated to reduced mannan-KLH
[7] = Table 3, peptide analogues emulsified in complete Freund's adjuvant

| Compound | IL-4 secreting T cells (in words) [1, 4] | IL-4 secreting T cells (in words) [1, 5] | IL-4 [1, 6] | IL-4 [1, 7] | IL-4 responses [1] | IFN-γ secreting T cells (in words) [2, 4] | IFN-γ secreting T cells (in words) [2, 5] | IFN-γ [2, 6] | IFN-γ [2, 7] | Antagonism [3] | % IFN-γ inhibition ([3]; spleen cells of mice immunized with native MBP83-99 in CFA, 25 days, cyclic analogue added together with native MBP83-99) |
| --- | --- | --- | --- | --- | --- | --- | --- | --- | --- | --- | --- |
| cyclo(83-99)E N P V V H F F A N I V T P R T P (ENPVVHFFANIVTPRTP; cyclised or stapled) [cyclo(83-99)[A^91]MBP83-99] | negative | did generate IL-4 | − | − | up to 70 SFU/0.5 million cells | negative | lower | − | − | ++ | up to 92% |
| E N P V V H F F A N I V T P R T P (ENPVVHFFANIVTPRTP) [[A^91]MBP83-99] | high levels | not able to generate IL-4 | +++ | − | up to 600 SFU/0.5 million cells | negative | lower | − | − | ++ |  |
| E N P V V H F F K N I V T P R T P (ENPVVHFFKNIVTPRTP) [MBP83-99, reference compound] | did not stimulate; also recorded: weak or no; also recorded: low levels | did not induce IL-4 | − | − |  | weak and generated IFN-γ secreting T cells and high levels | induced IFN-γ responses | ++ | + |  |  |
| E N P V V H F F F N I V T P R T P (ENPVVHFFFNIVTPRTP) [[F^91]MBP83-99] | high levels; also recorded: induced |  | +++ | − |  | weak and induced |  | ++ | ++ | ++ |  |
| E N P V V H F F R N I V T A R T P (ENPVVHFFRNIVTARTP) [[R^91, A^96]MBP83-99] | high levels |  | +++ | ++ |  | no IFN-γ |  | − | ++ | ++ |  |
| E N P V V H F F Y N I V T P R T P (ENPVVHFFYNIVTPRTP) [[Y^91]MBP83-99] | high levels |  | +++ | − |  |  |  | − | − | ++ |  |
| CC[C@H](C)[C@@H]1NC(=O)[C@H](CC(N)=O)NC(=O)[C@H](CCCCN)NC(=O)[C@H](Cc2ccccc2)NC(=O)[C@H](Cc2ccccc2)NC(=O)[C@H](Cc2c[nH]cn2)NC(=O)[C@H](C(C)C)NC(=O)[C@H](C(C)C)NC(=O)[C@@H]2CCCN2C(=O)[C@H](CC(N)=O)NC(=O)[C@H](CCC(=O)O)NC(=O)[C@@H]2CCCN2C(=O)[C@H]([C@@H](C)O)NC(=O)[C@H](CCCNC(=N)N)NC(=O)[C@@H]2CCCN2C(=O)[C@H]([C@@H](C)O)NC(=O)[C@H](C(C)C)NC1=O [cyclo(83-99)MBP83-99, cyclo(83-99)E N P V V H F F K N I V T P R T P] | did not stimulate; also recorded: weak or no | induced IL-4 |  | − |  | weak and generated IFN-γ secreting T cells | induced IFN-γ responses |  | + |  |  |
| E N P V V H F F E N I V T P R T P (ENPVVHFFENIVTPRTP) [[E^91]MBP83-99] | high levels |  | +++ | − |  |  |  | − | − | ++ |  |
